Results as given in PubChem BioAssay (NCI).
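Interpolation was linear, between the two tested concentrations surrounding the appropriate level; five concentrations were tested over 48 hours in 96-well plates. GI50 = concentration required for 50% inhibition of growth. The concentration for full growth arrest is given as TGI.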

Key:
Test in all cases: NCI anticancer screen, dose series, 48 h
BT-549 breast = system: BT-549 breast
CAKI-1 renal = system: CAKI-1 renal
EKVX NSCLC = system: EKVX NSCLC
HCC-2998 colon = system: HCC-2998 colon
HL-60(TB) leukemia = system: HL-60(TB) leukemia
K-562 leukemia = system: K-562 leukemia
M14 melanoma = system: M14 melanoma
MALME-3M melanoma = system: MALME-3M melanoma
MDA-MB-435 = system: MDA-MB-435
SK-MEL-28 melanoma = system: SK-MEL-28 melanoma

## COc1cc(-c2oc3c(OC)c(O)c(OC)c(O)c3c(=O)c2OC)cc(OC)c1OC
BT-549 breast
  TGI: > 100 µM
CAKI-1 renal
  TGI: > 100 µM
EKVX NSCLC
  TGI: > 100 µM
HCC-2998 colon
  TGI: > 100 µM
HL-60(TB) leukemia
  TGI: > 100 µM
K-562 leukemia
  TGI: > 100 µM
M14 melanoma
  TGI: > 100 µM
MALME-3M melanoma
  TGI: > 100 µM
MDA-MB-435
  TGI: > 100 µM
SK-MEL-28 melanoma
  TGI: > 100 µM

## C=C(C)COc1ccc2c(c1)CCC1C2CCC2(C)C(=O)/C(=N/O)CC12 (stereo not drawn)
BT-549 breast
  TGI: 21.2 µM
CAKI-1 renal
  TGI: 10.2 µM
EKVX NSCLC
  TGI: 9.32 µM
HL-60(TB) leukemia
  TGI: 5.92 µM
K-562 leukemia
  TGI: 9.96 µM
M14 melanoma
  TGI: 14.4 µM
MALME-3M melanoma
  TGI: 29.1 µM
MDA-MB-435
  TGI: 7.61 µM
SK-MEL-28 melanoma
  TGI: 33.3 µM

## COc1ccc2c(c1)OCC1c3cc(OC)c4ccccc4c3OC21 (stereo not drawn)
BT-549 breast
  GI50: 11.5 µM
  TGI: 97.2 µM
CAKI-1 renal
  GI50: 5.05 µM
  TGI: 44.9 µM
EKVX NSCLC
  GI50: 25.1 µM
  TGI: > 100 µM
HCC-2998 colon
  GI50: 1.98 µM
  TGI: 7.26 µM
HL-60(TB) leukemia
  GI50: 2.61 µM
  TGI: 9.61 µM
K-562 leukemia
  GI50: 4.62 µM
  TGI: > 100 µM
M14 melanoma
  GI50: 7.23 µM
  TGI: > 100 µM
MALME-3M melanoma
  GI50: 5.01 µM
  TGI: > 100 µM
MDA-MB-435
  GI50: 2.56 µM
  TGI: 7.46 µM
SK-MEL-28 melanoma
  GI50: 9.13 µM
  TGI: > 100 µM

## O=C1CCc2cc(Br)ccc2O1
BT-549 breast
  TGI: > 100 µM
CAKI-1 renal
  TGI: > 100 µM
EKVX NSCLC
  TGI: > 100 µM
HCC-2998 colon
  TGI: > 100 µM
HL-60(TB) leukemia
  TGI: > 100 µM
K-562 leukemia
  TGI: > 100 µM
M14 melanoma
  TGI: > 100 µM
MALME-3M melanoma
  TGI: > 100 µM
MDA-MB-435
  TGI: > 100 µM
SK-MEL-28 melanoma
  TGI: > 100 µM

## Clc1nc(Cl)c2ncn(-c3ccccc3)c2n1
BT-549 breast
  GI50: 15.9 µM
  TGI: 29.5 µM
EKVX NSCLC
  GI50: 4.49 µM
  TGI: 19.2 µM
HL-60(TB) leukemia
  GI50: 1.96 µM
  TGI: 4.21 µM
K-562 leukemia
  GI50: 2.61 µM
  TGI: 7.05 µM
M14 melanoma
  GI50: 1.86 µM
  TGI: 3.85 µM
MALME-3M melanoma
  GI50: 2.01 µM
  TGI: 7.12 µM
MDA-MB-435
  GI50: 3.32 µM
  TGI: 13.2 µM
SK-MEL-28 melanoma
  GI50: 4.69 µM
  TGI: 17.3 µM

## COc1ccc(-c2nc3sccn3c2-c2ccnc(NCCNS(=O)(=O)c3ccc(C(F)(F)F)cc3)n2)cc1
BT-549 breast
  GI50: 0.707 µM
  TGI: 5.94 µM
CAKI-1 renal
  GI50: 2.64 µM
  TGI: > 100 µM
EKVX NSCLC
  GI50: 4.04 µM
  TGI: > 100 µM
HCC-2998 colon
  GI50: 4.6 µM
  TGI: > 100 µM
HL-60(TB) leukemia
  GI50: 0.494 µM
  TGI: > 100 µM
K-562 leukemia
  GI50: 0.411 µM
  TGI: > 100 µM
M14 melanoma
  GI50: 0.69 µM
  TGI: 3.25 µM
MALME-3M melanoma
  GI50: 2.35 µM
  TGI: 5.22 µM
MDA-MB-435
  GI50: 1.44 µM
  TGI: 5.88 µM
SK-MEL-28 melanoma
  GI50: 3.68 µM
  TGI: 55.5 µM

## Nc1nc(N)c2cc(S(=O)(=O)c3ccc4ccccc4c3)ccc2n1
BT-549 breast
  TGI: > 100 µM
CAKI-1 renal
  TGI: > 100 µM
EKVX NSCLC
  TGI: > 100 µM
HCC-2998 colon
  TGI: > 100 µM
HL-60(TB) leukemia
  TGI: > 100 µM
K-562 leukemia
  TGI: > 100 µM
M14 melanoma
  GI50: 2.23 µM
  TGI: > 100 µM
MALME-3M melanoma
  TGI: > 100 µM
MDA-MB-435
  TGI: > 100 µM
SK-MEL-28 melanoma
  TGI: > 100 µM

## NS(=O)(=O)c1ccc(N=Nc2c(O)[nH]c3ccc(C(=O)NCCCn4ccnc4)cc23)cc1
BT-549 breast
  GI50: > 25 µM
  TGI: > 25 µM
CAKI-1 renal
  GI50: > 25 µM
  TGI: > 25 µM
EKVX NSCLC
  GI50: > 25 µM
  TGI: > 25 µM
HCC-2998 colon
  GI50: > 25 µM
  TGI: > 25 µM
HL-60(TB) leukemia
  GI50: > 25 µM
  TGI: > 25 µM
K-562 leukemia
  GI50: > 25 µM
  TGI: > 25 µM
M14 melanoma
  GI50: > 25 µM
  TGI: > 25 µM
MALME-3M melanoma
  GI50: > 25 µM
  TGI: > 25 µM
MDA-MB-435
  GI50: > 25 µM
  TGI: > 25 µM
SK-MEL-28 melanoma
  GI50: > 25 µM
  TGI: > 25 µM

## CCN1CCN(Cc2ccc(Nc3ncc(F)c(-c4cc(F)c5nc(C)n(C(C)C)c5c4)n3)nc2)CC1
BT-549 breast
  GI50: 6.54 µM
  TGI: 13.7 µM
CAKI-1 renal
  GI50: 0.187 µM
  TGI: 7.51 µM
HCC-2998 colon
  GI50: 5.35 µM
  TGI: 11.5 µM
HL-60(TB) leukemia
  GI50: 2.82 µM
  TGI: 13.2 µM
K-562 leukemia
  GI50: 5.85 µM
  TGI: 21 µM
M14 melanoma
  GI50: 3.6 µM
  TGI: 11.5 µM
MALME-3M melanoma
  GI50: 0.0557 µM
  TGI: 10.5 µM
MDA-MB-435
  GI50: 0.191 µM
  TGI: 10.7 µM
SK-MEL-28 melanoma
  GI50: 6.03 µM
  TGI: 12.9 µM

## Cc1cc(S(=O)(=O)Nc2nc3ccccc3c(=O)n2Cc2ccco2)c(S)cc1Cl
BT-549 breast
  GI50: 15.7 µM
  TGI: 51.9 µM
CAKI-1 renal
  GI50: 44.1 µM
  TGI: > 100 µM
EKVX NSCLC
  GI50: 22.8 µM
  TGI: 70.6 µM
HCC-2998 colon
  GI50: 38.6 µM
  TGI: > 100 µM
HL-60(TB) leukemia
  GI50: 74.3 µM
  TGI: > 100 µM
K-562 leukemia
  GI50: 49.7 µM
  TGI: > 100 µM
M14 melanoma
  GI50: 69.9 µM
  TGI: > 100 µM
MALME-3M melanoma
  GI50: 54.8 µM
  TGI: > 100 µM
MDA-MB-435
  GI50: 41.2 µM
  TGI: > 100 µM
SK-MEL-28 melanoma
  GI50: 34.8 µM
  TGI: > 100 µM

## c1cc[n+](Cc2c3ccccc3cc3c2ccc2ccccc23)cc1
BT-549 breast
  GI50: 1.73 µM
  TGI: 4.6 µM
EKVX NSCLC
  GI50: 19.5 µM
  TGI: > 100 µM
HCC-2998 colon
  GI50: 3.38 µM
  TGI: 19.4 µM
HL-60(TB) leukemia
  GI50: 3.15 µM
  TGI: 12.5 µM
K-562 leukemia
  GI50: 3.21 µM
  TGI: 17.8 µM
M14 melanoma
  GI50: 5.05 µM
  TGI: 19.7 µM
MALME-3M melanoma
  GI50: 1.56 µM
  TGI: 3.91 µM
MDA-MB-435
  GI50: 3.29 µM
  TGI: 12.2 µM
SK-MEL-28 melanoma
  GI50: 2.11 µM
  TGI: 5.5 µM

## COc1ccc(-c2cc(=O)c3c(OC)c4ccoc4c(/C=C/C=O)c3o2)cc1
BT-549 breast
  GI50: 2.14 µM
  TGI: 7.15 µM
CAKI-1 renal
  GI50: 5.03 µM
  TGI: > 100 µM
HCC-2998 colon
  GI50: 13.7 µM
  TGI: 27.8 µM
HL-60(TB) leukemia
  GI50: 2.72 µM
  TGI: 8.33 µM
K-562 leukemia
  GI50: 2.8 µM
  TGI: > 100 µM
M14 melanoma
  GI50: 2.24 µM
  TGI: 7.56 µM
MALME-3M melanoma
  GI50: 3.79 µM
  TGI: 8.3 µM
MDA-MB-435
  GI50: 2.81 µM
  TGI: 32.3 µM
SK-MEL-28 melanoma
  GI50: 2.52 µM
  TGI: 7.1 µM

## CSC1=CC(=O)c2ccccc2C1=O
BT-549 breast
  GI50: 11.6 µM
  TGI: 23.8 µM
CAKI-1 renal
  GI50: 1.59 µM
  TGI: 3.11 µM
EKVX NSCLC
  GI50: 15.5 µM
  TGI: 34.9 µM
HCC-2998 colon
  GI50: 15.3 µM
  TGI: 29.9 µM
HL-60(TB) leukemia
  GI50: 1.87 µM
  TGI: 4.33 µM
M14 melanoma
  GI50: 2.03 µM
  TGI: 3.88 µM
MALME-3M melanoma
  GI50: 1.92 µM
  TGI: 3.54 µM
MDA-MB-435
  GI50: 3.02 µM
  TGI: 9.73 µM
SK-MEL-28 melanoma
  GI50: 11.1 µM
  TGI: 23.8 µM

## CS(=O)(=O)Nc1cc(-c2ccc3ncc(C#N)c(Nc4ccc(F)c(Cl)c4)c3c2)cnc1Cl
BT-549 breast
  GI50: 0.0542 µM
  TGI: 0.655 µM
CAKI-1 renal
  GI50: 0.258 µM
  TGI: 1.24 µM
EKVX NSCLC
  GI50: 0.275 µM
  TGI: 3.29 µM
HCC-2998 colon
  GI50: 0.382 µM
  TGI: 1.55 µM
HL-60(TB) leukemia
  GI50: 0.12 µM
  TGI: 0.741 µM
K-562 leukemia
  GI50: 0.201 µM
  TGI: > 100 µM
M14 melanoma
  GI50: 0.193 µM
  TGI: 1.92 µM
MALME-3M melanoma
  GI50: 0.0354 µM
  TGI: 0.278 µM
MDA-MB-435
  GI50: 0.22 µM
  TGI: 1.85 µM
SK-MEL-28 melanoma
  GI50: 0.133 µM
  TGI: 1.47 µM
